Test results from publication PMC5838106, “Cathelicidin promotes inflammation by enabling binding of self-RNA to cell surface scavenger receptors” (Scientific Reports, 2018).

Columns and labels:
Assay type in all cases: cell-based, human
NHEKs = assay: Cytokine mRNA expression in NHEKs stimulated with cathelicidin peptide and dsRNA (quantitative real-time PCR); conditions: for inhibition of the expression of inflammatory cytokines induced by LL37 and U1 RNA: MDC 200 μM, Pitstop-2 25 μM, dynasore 80 μM for 30 minutes
THP1 cells = assay: Cytokine expression in PMA-treated THP1 cells stimulated with cathelicidin peptide and U1 RNA; conditions: PMA-treated THP1; MDC 200 μM, Pitstop-2 25 μM, dynasore 80 μM for 30 minutes, LL37 3 μM and U1 RNA 12.5 μg/mL overnight; n = 3
Method: Figure 1 Inflammatory activity of cathelicidin can be dissociated from antimicrobial function (a) Transcriptomic analysis by RNASeq of primary cultures of normal human epidermal keratinocytes (NHEKs) treated with LL37 (2.5 μM) with or without U1 RNA (2.5 μg/mL) for 24 hours. Shown are gene sets induced > 2 fold over vehicle, and after treatment with LL37, U1 RNA, or the combination of LL37 + U1 RNA. (b) Gene Ontology analysis of gene sets from (a). The number of genes related to each biological process is indicated in parentheses. (c) Amino acid sequence of synthetic cathelicidin peptides used in this study. (d) Antimicrobial assay of cathelicidin peptides against group A streptococcus (GAS). GAS were incubated with various concentrations of each peptide (0–25 μM) for 6 hours, then surviving colonies counted after plating on Todd Hewitt Broth gel. (e) IFN-β1 mRNA abundance and (f) IL-6 mRNA abundance in NHEKs after treatment with cathelicidin peptides (2.5 μM) for 10 minutes, then stimulated with U1 RNA (2.5 μg/mL) for a further 6 hours. (n = 3). (g) IFN-β1 mRNA abundance and (h) IL-6 mRNA abundance in […] (PMA)-treated THP1 cells after treatment with cathelicidin peptides (3 μM) for 10 minutes, then stimulated with U1 RNA (12.5 μg/mL) overnight. (n = 3). Data presented are from one representative experiment of at least two independent experiments. Error bars are SEM of three biological replicates. *P < 0.05, **P < 0.01, ***P < 0.001 by two-way ANOVA with Bonferroni’s post-hoc test. See also Fig. S1.
Primary neonatal human epidermal keratinocytes (NHEKs) was purchased from ThermoFisher Scientific. NHEKs were grown in serum free EpiLife medium supplemented with 0.06 mM CaCl2, EpiLife Defined growth supplements (EDGS) (ThermoFisher Scientific) and antibiotics, and passage 3–5 cells were used for experiment. Cells at 60–80% confluence were starved overnight without EDGS prior to treatment. THP1 was purchased from American Type Culture Collection (ATCC) (Manassas, VA). THP1 was cultured in RPMI-1640 (Sigma) supplemented with 10% Hyclone fetal calf serum (Thermofisher Scientific), and antibiotics, and passage 3–5 cells were used for experiment. Cells at 60–80% confluence were differentiated by Phorbol 12-myristate 13-acetate (PMA, Sigma) for 24 hours and then starved overnight without Hyclone fetal calf serum prior to treatment.
RNA was isolated from NHEKs using Purelink RNA isolation columns (ThermoFisher Scientific) according to the manufacturer’s instructions. RNA was quantified using a Nanodrop spectrophotometer (ThermoFisher Scientific), and up to 500 ng of RNA was reverse-transcribed using the iScript cDNA synthesis kit (Bio-Rad, Irvine, CA). Quantitative real-time PCR reactions were run on a CFX96 real-time detection system (Bio-Rad) using gene-specific primers and TaqMan probes (ThermoFisher Scientific). PCR primers and probes are shown on Table S2.

scavenger receptors = assay: Proximity ligation assay between U1 RNA and the indicated scavenger receptors; conditions: NHEKs, 4 °C, 1 hour; Fig. 3d
Method: Figure 3 Cathelicidin enables dsRNA to associate with scavenger receptors. (a) Proximity ligation assay for SR-B1 and U1 RNA. NHEKs were cultured with various cathelicidin peptides (2.5 μM) for 10 minutes, then with biotinylated U1 RNA (2.5 μg/mL) at 4 °C for 1 hour before physical proximity of SR-B1 and U1 RNA was determined using a fluorescence-based PLA that produces a red fluorescent signal. Nuclei (blue) are counterstained with DAPI. Scale bar represents 10 μm. (b) Signal count of (a) in 5 visual fields. (c) Proximity ligation assay as in (a) but reaction is detecting proximity of LL37 and SR-A6. Scale bar represents 100 μm. (d) Signal count of proximity ligation assay performed as in (a), but between U1 RNA and the indicated scavenger receptors, each count is PLA complexes observed in 5 visual fields. (e) Skin sections from healthy subject (control), or lesional skin from a psoriasis patient (Psoriasis) were fixed and PLA performed for LL37 and SR-B1. […]
NHEKs seeded into 8 chamber slides (Thermo Fisher Scientific) were incubated with various combination of U1 RNA, poly(I:C), cathelicidin peptides, and fucoidan for 1 hour at 4 °C allowing binding, but not internalization. […] Fluorescent PLA signals were evaluated using fluorescence microscopy (described above). Signals are counted by Duolink ImageTool software version 1.0.1.2 (Sigma-aldrich).

[1] = LL37 2.5 μM and U1 RNA 2.5 μg/mL 6 hours, n = 3

For `Oc1ccc2ccccc2c1SSc1c(O)ccc2ccccc12` [IPA-3], the “effect on IFN-β1 and IL-6 expression induced by LL37 and U1 RNA” value (NHEKs; IPA-3 2.8 nM for 30 minutes, LL37 2.5 μM and U1 RNA 2.5 μg/mL 6 hours, n = 3) was “did not inhibit”.
In the case of `CN(C)c1cccc2c(S(=O)(=O)NCCCCCN)cccc12` [MDC, Monodansylcadaverine], the “inhibition of the expression of inflammatory cytokines induced by LL37 and U1 RNA” value (shortened to “inhibition … by LL37 and U1 RNA”) (THP1 cells) is reported as “significant inhibition” and the “inhibition … by LL37 and U1 RNA” value (NHEKs; [1]) is reported as “significant inhibition”.
For `O=C1NC(=NS(=O)(=O)c2cccc3ccccc23)S/C1=C\c1ccc(Br)cc1` [Pitstop-2^TM], the “inhibition … by LL37 and U1 RNA” value (THP1 cells) was “significant inhibition” and the “inhibition … by LL37 and U1 RNA” value (NHEKs; [1]) was “significant inhibition”.
In the case of `O=C(N/N=C/c1ccc(O)c(O)c1)c1cc2ccccc2cc1O` [dynasore], the “inhibition … by LL37 and U1 RNA” value (THP1 cells) is reported as “significant inhibition” and the “inhibition … by LL37 and U1 RNA” value (NHEKs; [1]) is reported as “significant inhibition”.
For Fucoidan, the “inhibition of the capacity of LL37 to induce cytokines combined with U1 RNA” value (NHEKs; various concentrations of fucoidan, LL37 2.5 μM and U1 RNA 2.5 μg/mL 6 hours) was “potently inhibited”, the “inhibition of the capacity of LL37 to induce cytokines combined with poly(I:C)” value (NHEKs; various concentrations of fucoidan, LL37 2.5 μM and poly(I:C) 0.3 μg/mL 6 hours) was “potently inhibited” and the “effect on LL37-dependent binding of U1 RNA to scavenger receptors (PLA)” value (scavenger receptors) was “significantly diminished binding”.
pertussis toxin was tested, and the “effect on expression of IL-6 induced by LL37 and U1 RNA” value (NHEKs; pertussis toxin 0.5 μg/mL or WRW4 1 μM for 1 hour, then LL37 2.5 μM and U1 RNA 2.5 μg/mL 6 hours, n = 3) was “did not decrease”.
